Experimental findings from ChEMBL document CHEMBL2086378, “Eudesmane-type sesquiterpenoid and guaianolides from Kandelia candel in a screening program for compounds to overcome TRAIL resistance” (2012) are described below.

Format in all cases: functional
Assay [1] concerns AGS. The experiment in a line: Cytotoxicity against TRAIL-resistant human AGS cells assessed as inhibition of cell viability at 80 uM after 24 hrs by fluorescence assay in presence of 100 ng/ml TRAIL relative to in absence of TRAIL.
Assay [2] relates to AGS. Kind of assay: Cytotoxicity against TRAIL-resistant human AGS cells assessed as inhibition of cell viability at 50 uM after 24 hrs by fluorescence assay in presence of 100 ng/ml TRAIL relative to in absence of TRAIL.
Assay [3] deals with AGS. The experiment in a line: Cytotoxicity against TRAIL-resistant human AGS cells assessed as inhibition of cell viability at 17.5 uM after 24 hrs by fluorescence assay in presence of 100 ng/ml TRAIL relative to in absence of TRAIL.
In assay [4] the test system is AGS. The experiment in a line: Cytotoxicity against TRAIL-resistant human AGS cells assessed as inhibition of cell viability at 10 uM after 24 hrs by fluorescence assay in presence of 100 ng/ml TRAIL relative to in absence of TRAIL.

On to `C=C(C(=O)OC)[C@@H]1CC[C@@]2(C)C=CC(=O)C(C)=C2C1`, for which the “inhibition (INH)” value in assay [1] is on record as 29%.

On to `CC(=O)O[C@H]1CC(C)=C2C(=O)C=C(C)[C@@H]2[C@H]2OC(=O)[C@@H](C)[C@@H]21`, for which the “inhibition (INH)” value in assay [2] is listed as 23%. Take `O=c1cc(-c2ccc(O)c(O)c2)oc2cc(O)cc(O)c12` [LUTEOLIN]: the “inhibition (INH)” value in assay [3] is listed as 48%.

For the molecule `C/C=C(\C)C(=O)O[C@H]1CC(C)=C2C(=O)C=C(C)[C@@H]2[C@H]2OC(=O)[C@@H](C)[C@@H]21` [MEHIRUGIN B], in assay [4], the “inhibition (INH)” value is 27%.
